# Results taken from ChEMBL document CHEMBL1201862, “PubChem BioAssay data set” (2004).
#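 Cells were grown in 96-well plates and exposed to each compound for 48 hours at five concentrations; endpoints were interpolated linearly between bracketing concentrations, or set to the highest concentration if not reached. GI50: concentration for 50% inhibition of growth.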 Calls of active or inactive are those of the source. Rule as the data show it: active = GI50 up to about 1.1 µM and inactive = higher.
# Legend:
# Experiment in all cases: growth of human tumour cells (NCI), 48 h
# [1] = test system: TK-10
# [2] = test system: SW-620
# [3] = test system: HCT-116
# [4] = test system: HCT-15
# [5] = test system: DMS-273
# [6] = test system: Malme-3M
# [7] = test system: XF498
# [8] = test system: OVCAR-4
# [9] = test system: UACC-62
# [10] = test system: RPMI-8226
# [11] = test system: SK-OV-3
# [12] = test system: KM12
# [13] = test system: SNB-19
# [14] = test system: CAKI-1
# [15] = test system: RXF 393
# [16] = test system: OVCAR-5
# [17] = test system: ACHN
# [18] = test system: DLD-1
# [19] = test system: M14
# [20] = test system: IGROV-1
smiles,measurement,setting,value
CC(/C=C/c1ncccc1OCCCCCC(=O)O)=N\NC1=NCCN1,GI50,[1],65.3 µM (inactive)
same,GI50,[2],> 100 µM (inactive)
same,GI50,[3],> 100 µM (inactive)
same,GI50,[4],> 100 µM
same,GI50,[5],> 100 µM (inactive)
same,GI50,[6],> 100 µM (inactive)
same,GI50,[7],> 100 µM (inactive)
same,GI50,[8],> 100 µM (inactive)
same,GI50,[9],> 100 µM (inactive)
same,GI50,[10],> 100 µM (inactive)
same,GI50,[11],> 100 µM (inactive)
same,GI50,[12],> 100 µM (inactive)
same,GI50,[13],> 100 µM (inactive)
same,GI50,[14],> 100 µM (inactive)
same,GI50,[15],68.1 µM (inactive)
same,GI50,[16],> 100 µM (inactive)
same,GI50,[17],> 100 µM (inactive)
same,GI50,[18],> 100 µM (inactive)
same,GI50,[19],> 100 µM (inactive)
same,GI50,[20],> 100 µM (inactive)
